Two molecules from ChEMBL document CHEMBL5647694, “Novel orally bioavailable EZH1/2 dual inhibitors with greater antitumor efficacy than an EZH2 selective inhibitor” (Cancer Sci, 2017) can be followed below.

Data set [1] is described as follows: Toxicity in Crl:CD Sprague-Dawley rat assessed as platelet count in blood at 100 mg/kg, po administered daily for 14 days (reference value: 1160+/-65.1 10^3/uL). The format is organism-based. As to conditions: in vivo, 336 h, time 14 day.
The nature of data set [2]: Mean AUC (0-24 hrs) in Crl:CD Sprague-Dawley rat at 100 mg/kg, po administered daily for 14 days by LC/MS/MS analysis. The following applies: in vivo, time 14 day. Format: ADME, organism-based.
Data set [3] can be described thus: Toxicity in Crl:CD Sprague-Dawley rat assessed as total cholesterol level in blood at 100 mg/kg, po administered daily for 14 days (reference value: 63.5 +/-[…]). The format is organism-based. As to conditions: in vivo, 336 h, time 14 day.
The nature of data set [4]: Toxicity in Crl:CD Sprague-Dawley rat assessed as monocyte count in blood at 100 mg/kg, po administered daily for 14 days (reference value: 0.203+/-0.09 10^3/uL). The format is organism-based. The following applies: in vivo, 336 h, time 14 day.
A short description of data set [5]: Toxicity in Crl:CD Sprague-Dawley rat assessed as sodium level in blood at 100 mg/kg, po administered daily for 14 days (reference value: 141+/-0.82 mEq/L). As to conditions: in vivo, 336 h, time 14 day. Format: organism-based.
The nature of data set [6]: Toxicity in Crl:CD Sprague-Dawley rat assessed as total bilirubin level in blood at 100 mg/kg, po administered daily for 14 days (reference value: 0.003+/-0.005 mg/dL). Format: organism-based. As to conditions: in vivo, 336 h, time 14 day.
Data set [7] can be described thus: Toxicity in Crl:CD Sprague-Dawley rat assessed as vacuolation of histiocytes in thymus cortex at 100 mg/kg, po administered daily for 14 days by hematoxylin and eosin staining based analysis. The format is organism-based. The following applies: in vivo, 336 h, time 14 day.
Data set [8] can be described thus: Toxicity in Crl:CD Sprague-Dawley rat assessed as MCHC level in blood at 100 mg/kg, po administered daily for 14 days (reference value: 32.7 +/-0.05%). As to conditions: in vivo, 336 h, time 14 day. The format is organism-based.
A short description of data set [9]: Toxicity in Crl:CD Sprague-Dawley rat assessed as decrease of lymphocytes in thymus cortex at 100 mg/kg, po administered daily for 14 days by hematoxylin and eosin staining based analysis. Format: organism-based. The following applies: in vivo, 336 h, time 14 day.
Data set [10] can be described thus: Toxicity in Crl:CD Sprague-Dawley rat assessed as urea nitrogen level in blood at 100 mg/kg, po administered daily for 14 days (reference value: 16.7+/-2.39 mg/dL). The format is organism-based. As to conditions: in vivo, 336 h, time 14 day.
A short description of data set [11]: Cmax in Crl:CD Sprague-Dawley rat at 100 mg/kg, po by LC/MS/MS analysis. Format: ADME, organism-based. The following applies: in vivo.
The nature of data set [12]: Antitumor activity against human COV504 cells assessed as cell growth inhibition treated for 10 to 15 days. Format: functional. As to conditions: time 10-15 day.
Data set [13] has as its system Rec1. Nature of the data set: Antitumor activity against human REC1 cells assessed as cell growth inhibition treated for 10 to 15 days. Format: functional. As to conditions: time 10-15 day.
Data set [14] concerns SNU1. Nature of the data set: Antitumor activity against human SNU1 cells assessed as cell growth inhibition treated for 10 to 15 days. The format is functional. As to conditions: time 10-15 day.
A short description of data set [15]: Antitumor activity against human HCC202 cells assessed as cell growth inhibition treated for 10 to 15 days. As to conditions: time 10-15 day. Format: functional.
In data set [16] the test system is KG-1. Nature of the data set: Antitumor activity against human KG-1 cells assessed as cell growth inhibition treated for 10 to 15 days. The following applies: time 10-15 day. Format: functional.
The subject of data set [17] is Z-138. Nature of the data set: Antitumor activity against human Z138 cells assessed as cell growth inhibition treated for 10 to 15 days. Format: functional. As to conditions: time 10-15 day.
Data set [18] deals with ZR-75-1. Nature of the data set: Antitumor activity against human ZR-75-1 cells assessed as cell growth inhibition treated for 10 to 15 days. Format: functional. As to conditions: time 10-15 day.
Data set [19] relates to Pfeiffer. Nature of the data set: Antitumor activity against human Pfeiffer cells assessed as cell growth inhibition treated for 10 to 15 days. Format: functional. As to conditions: time 10-15 day.
A short description of data set [20]: Antitumor activity against human CMK-86 cells assessed as cell growth inhibition treated for 10 to 15 days. Format: functional. As to conditions: time 10-15 day.
The test system of data set [21] is HCC1395. Nature of the data set: Antitumor activity against human HCC1395 cells assessed as cell growth inhibition treated for 10 to 15 days. The format is functional. The following applies: time 10-15 day.
Data set [22] concerns HPAC. Nature of the data set: Antitumor activity against human HPAC cells assessed as cell growth inhibition treated for 10 to 15 days. Format: functional. The following applies: time 10-15 day.
Data set [23] has as its system VCaP. Nature of the data set: Antitumor activity against human VCaP cells assessed as cell growth inhibition treated for 10 to 15 days. The format is functional. The following applies: time 10-15 day.
For data set [24], the system named is G-401. Nature of the data set: Antitumor activity against human G-401 cells assessed as cell growth inhibition treated for 10 to 15 days. As to conditions: time 10-15 day. The format is functional.
Data set [25] deals with NCI-H929. Nature of the data set: Antitumor activity against human NCI-H929 cells assessed as cell growth inhibition treated for 10 to 15 days. The format is functional. As to conditions: time 10-15 day.
Data set [26] has as its system TOV21G. Nature of the data set: Antitumor activity against human TOV-21G cells assessed as cell growth inhibition treated for 10 to 15 days. The format is functional. The following applies: time 10-15 day.
The target in data set [27] is Histone-lysine N-methyltransferase 2D (Homo sapiens, UniProt O14686). Nature of the data set: Inhibition of human MLL2 using Core Histone and [3H]SAM as substrate incubated for 30 mins to 1 hr by HotSpot kinase assay.
Data set [28] can be described thus: Antitumor activity against human HCC1500 cells assessed as cell growth inhibition treated for 10 to 15 days. Format: functional. As to conditions: time 10-15 day.
In data set [29] the test system is CA46. Nature of the data set: Antitumor activity against human CA46 cells assessed as cell growth inhibition treated for 10 to 15 days. The format is functional. The following applies: time 10-15 day.
In data set [30] the test system is MKN-1. Nature of the data set: Antitumor activity against human MKN-1 cells assessed as cell growth inhibition treated for 10 to 15 days. The format is functional. The following applies: time 10-15 day.
In data set [31] the target is DNA (cytosine-5)-methyltransferase 3B (Homo sapiens, UniProt Q9UBC3). Nature of the data set: Inhibition of human DNMT3b using lambda DNA and [3H]SAM as substrate incubated for 30 mins to 1 hr by HotSpot kinase assay.
Data set [32] has as its system U-937. Nature of the data set: Antitumor activity against human U-937 cells assessed as cell growth inhibition treated for 10 to 15 days. As to conditions: time 10-15 day. The format is functional.
Data set [33] in a line: Antitumor activity against human Kasumi-3 cells assessed as cell growth inhibition treated for 10 to 15 days. The format is functional. As to conditions: time 10-15 day.
Data set [34] has as its system RPMI-8226. Nature of the data set: Antitumor activity against human RPMI-8226 cells assessed as cell growth inhibition treated for 10 to 15 days. Format: functional. The following applies: time 10-15 day.
The subject of data set [35] is A704. Nature of the data set: Antitumor activity against human A704 cells assessed as cell growth inhibition treated for 10 to 15 days. Format: functional. The following applies: time 10-15 day.
Data set [36] has as its target Serine/threonine-protein kinase D2 (Homo sapiens) (UniProt Q9BZL6). Nature of the data set: Inhibition of N-terminal GST-fused full length human PKD2 (1 to 878 residues) expressed in baculovirus expression system using GS peptide as substrate at 1 uM in presence of ATP by Mobility shift assay.
In data set [37] the test system is HCT-15. Nature of the data set: Antitumor activity against human HCT-15 cells assessed as cell growth inhibition treated for 10 to 15 days. Format: functional. As to conditions: time 10-15 day.
Data set [38] addresses Tyrosine-protein kinase SYK (Homo sapiens) (UniProt P43405). Nature of the data set: Inhibition of N-terminal GST-tagged full length human SYK (1 to 635 residues) expressed in baculovirus-infected Sf21 cells using Blk/Lyntide as substrate at 1 uM in presence of ATP by Mobility shift assay.
Data set [39] concerns NCI-H1436. Nature of the data set: Antitumor activity against human NCI-H1436 cells assessed as cell growth inhibition treated for 10 to 15 days. As to conditions: time 10-15 day. Format: functional.
Data set [40] addresses Histone-lysine N-methyltransferase SETD1B (Homo sapiens, UniProt Q9UPS6). Nature of the data set: Inhibition of human SET1B using Core Histone and [3H]SAM as substrate incubated for 30 mins to 1 hr by HotSpot kinase assay.
Data set [41] has as its system CWR22R. Nature of the data set: Antitumor activity against human 22Rv1 cells assessed as cell growth inhibition treated for 10 to 15 days. The format is functional. The following applies: time 10-15 day.

Chain of Serine/threonine-protein kinase D2 (Homo sapiens) (Q9BZL6 whole entry, the tested form may be a part): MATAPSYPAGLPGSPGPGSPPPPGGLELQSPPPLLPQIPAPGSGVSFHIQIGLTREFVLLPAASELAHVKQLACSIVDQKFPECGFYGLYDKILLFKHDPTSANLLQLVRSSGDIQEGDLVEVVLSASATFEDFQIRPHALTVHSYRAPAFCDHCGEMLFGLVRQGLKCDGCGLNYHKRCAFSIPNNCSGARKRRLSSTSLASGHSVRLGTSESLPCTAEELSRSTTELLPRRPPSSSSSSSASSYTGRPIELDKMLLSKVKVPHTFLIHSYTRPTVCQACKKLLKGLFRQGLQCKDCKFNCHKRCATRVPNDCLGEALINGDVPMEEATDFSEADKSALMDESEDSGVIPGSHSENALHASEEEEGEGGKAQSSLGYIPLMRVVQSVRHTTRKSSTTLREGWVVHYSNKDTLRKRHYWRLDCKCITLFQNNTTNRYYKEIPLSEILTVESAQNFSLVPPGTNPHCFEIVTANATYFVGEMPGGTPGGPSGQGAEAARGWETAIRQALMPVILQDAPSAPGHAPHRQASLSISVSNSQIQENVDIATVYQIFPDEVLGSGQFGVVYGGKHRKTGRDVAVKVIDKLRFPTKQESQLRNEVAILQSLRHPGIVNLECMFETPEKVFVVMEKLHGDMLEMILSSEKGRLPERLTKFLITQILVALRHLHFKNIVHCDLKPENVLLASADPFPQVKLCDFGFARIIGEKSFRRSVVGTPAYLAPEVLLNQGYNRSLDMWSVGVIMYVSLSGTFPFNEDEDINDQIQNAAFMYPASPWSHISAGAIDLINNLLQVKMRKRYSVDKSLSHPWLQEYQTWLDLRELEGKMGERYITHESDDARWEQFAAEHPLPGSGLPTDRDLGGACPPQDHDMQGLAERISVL
Chain of Histone-lysine N-methyltransferase SETD1B (Q9UPS6 whole entry): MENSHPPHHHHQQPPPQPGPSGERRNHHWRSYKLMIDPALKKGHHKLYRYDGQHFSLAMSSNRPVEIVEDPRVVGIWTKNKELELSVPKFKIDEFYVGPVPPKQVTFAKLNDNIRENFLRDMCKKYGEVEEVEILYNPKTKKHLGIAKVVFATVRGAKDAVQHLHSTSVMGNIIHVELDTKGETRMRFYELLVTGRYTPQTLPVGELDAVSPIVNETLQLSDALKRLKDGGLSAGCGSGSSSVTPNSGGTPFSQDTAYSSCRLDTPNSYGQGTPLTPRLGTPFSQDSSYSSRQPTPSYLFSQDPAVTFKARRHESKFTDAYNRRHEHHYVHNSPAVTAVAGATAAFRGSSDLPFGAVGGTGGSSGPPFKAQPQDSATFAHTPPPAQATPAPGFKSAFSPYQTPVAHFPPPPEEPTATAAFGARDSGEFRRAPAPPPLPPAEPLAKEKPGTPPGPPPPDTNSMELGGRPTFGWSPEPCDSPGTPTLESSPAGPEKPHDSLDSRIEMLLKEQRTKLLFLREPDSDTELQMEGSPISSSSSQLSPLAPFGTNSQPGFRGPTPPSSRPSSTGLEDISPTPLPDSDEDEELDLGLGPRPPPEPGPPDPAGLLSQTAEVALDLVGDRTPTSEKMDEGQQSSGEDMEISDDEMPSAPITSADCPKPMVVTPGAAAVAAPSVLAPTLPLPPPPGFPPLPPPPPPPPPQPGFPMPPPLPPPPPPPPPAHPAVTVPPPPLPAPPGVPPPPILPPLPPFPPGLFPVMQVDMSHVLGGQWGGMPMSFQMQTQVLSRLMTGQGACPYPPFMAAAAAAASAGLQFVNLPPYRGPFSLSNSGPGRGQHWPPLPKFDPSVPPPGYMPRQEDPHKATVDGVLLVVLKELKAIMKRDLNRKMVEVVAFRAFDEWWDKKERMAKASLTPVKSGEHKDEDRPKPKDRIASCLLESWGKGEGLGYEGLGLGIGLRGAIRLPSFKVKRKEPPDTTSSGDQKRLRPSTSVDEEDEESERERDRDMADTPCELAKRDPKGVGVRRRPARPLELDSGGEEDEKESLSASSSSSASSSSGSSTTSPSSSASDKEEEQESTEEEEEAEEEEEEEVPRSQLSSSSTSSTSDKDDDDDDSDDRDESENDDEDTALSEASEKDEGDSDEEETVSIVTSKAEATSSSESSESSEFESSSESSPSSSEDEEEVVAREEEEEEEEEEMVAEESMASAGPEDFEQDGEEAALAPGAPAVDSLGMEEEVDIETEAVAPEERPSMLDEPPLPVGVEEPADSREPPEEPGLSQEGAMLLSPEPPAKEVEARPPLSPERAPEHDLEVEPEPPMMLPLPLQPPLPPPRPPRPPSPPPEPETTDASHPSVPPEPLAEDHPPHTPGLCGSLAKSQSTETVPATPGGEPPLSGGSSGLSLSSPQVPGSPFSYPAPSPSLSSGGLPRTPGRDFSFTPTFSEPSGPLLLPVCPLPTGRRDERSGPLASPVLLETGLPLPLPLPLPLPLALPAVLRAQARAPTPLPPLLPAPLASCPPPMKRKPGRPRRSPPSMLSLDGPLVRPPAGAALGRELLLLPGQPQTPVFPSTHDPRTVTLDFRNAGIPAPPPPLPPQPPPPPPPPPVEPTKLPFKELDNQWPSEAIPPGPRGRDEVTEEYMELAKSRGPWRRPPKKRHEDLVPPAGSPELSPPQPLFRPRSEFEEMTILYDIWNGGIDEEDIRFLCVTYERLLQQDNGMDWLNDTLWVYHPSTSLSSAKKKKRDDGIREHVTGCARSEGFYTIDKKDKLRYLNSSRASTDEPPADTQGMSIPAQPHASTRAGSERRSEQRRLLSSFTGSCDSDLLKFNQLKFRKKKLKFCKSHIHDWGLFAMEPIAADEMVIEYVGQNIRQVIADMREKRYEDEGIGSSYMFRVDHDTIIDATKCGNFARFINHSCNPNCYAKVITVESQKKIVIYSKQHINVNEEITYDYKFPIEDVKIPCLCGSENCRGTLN

Turning to `Cc1cc(C)c(CNC(=O)c2cc(Br)c3c(c2C)O[C@@](C)([C@H]2CC[C@H](N(C)C)CC2)O3)c(=O)[nH]1`, the Activity in [1] is 1120 10^3 /uL; in data set [3] it was 64 mg/dL; in data set [4], 0.105 10^3 /uL; in [5] it was 142 mEq/L; in data set [6] it was 0.028 mg/dL; in data set [7], “Toxic”. Besides, the Activity in data set [8] was 32.5%; in [9] it was “Toxic”; in [10], 16.8 mg/dL. This molecule also returned an AUC at 336 h in [2] of 27.9 µM·h. The Cmax in [11] is 2150 nM.
Consider `Cc1cc(C)c(CNC(=O)c2cc(Cl)c3c(c2C)O[C@@](C)([C@H]2CC[C@H](N(C)C)CC2)O3)c(=O)[nH]1` [VALEMETOSTAT], for which the GI50 was 317 nM in [12]; 480 nM in data set [13]; greater than 1000 nM in data set [14]; greater than 1000 nM in [15]; 700 nM in data set [16]; 19.1 nM in data set [17]. Besides, the concentration for 50% growth inhibition (GI50) in data set [18] is 138 nM; in data set [19] it was 0.107 nM; in data set [20] it was 444 nM; in data set [21], greater than 1000 nM; in data set [22] it was greater than 1000 nM; in [23] it was 50.7 nM. The 50% growth inhibitory concentration (GI50) was 17.7 nM in data set [24]; greater than 1000 nM in data set [25]; 55.5 nM in data set [26]; 21 nM in data set [28]; 296 nM in data set [29]; greater than 1000 nM in data set [30]. The GI50 in [32] is greater than 1000 nM; in [33], greater than 1000 nM; in data set [34] it was 1.91 nM; in data set [35], greater than 1000 nM; in [37], greater than 1000 nM; in data set [39], 216 nM. Further, the GI50 in data set [41] came to 37.7 nM. Further, the IC50 is greater than 100 µM in [27], 100 µM in data set [31] and 100 µM in data set [40]. Moreover, the inhibition in data set [36] is -4.7%; in data set [38], -8.4%.
